The subject of one assay is HeLa cells. The assay is described as follows: Western blot of HeLa cells exposed to B3. It counts as cell-based. The settings on record: 30 μM, 2-24 hrs. As to the method: (§1) The cells were lysed in WCE (whole-cell extract) buffer [25 mM Hepes, pH 7.7, 0.3M NaCl, 1.5 mM MgCl2, 0.2 mM EDTA, 0.1% Triton X-100, 100[μg/ml PMSF and protease inhibitor cocktail (Roche, 1:100 dilution)]. 100 μg of total cell protein, measured with the Bio-Rad Protein Assay kit, were separated by SDS-PAGE (12%) followed by transfer for 2 h on to a nitrocellulose membrane. The membrane was blocked with 5% (w/v) non-fat dried skimmed milk powder in PBS supplemented with 0.05% Tween20 (PBS-T) for 1 hour at room temperature (R.T). Membrane was then probed with primary antibody at 4° C. overnight. Next, the membrane was incubated with the appropriate HRP-conjugated secondary antibody, for 1 hour at R.T. and washed 15 min ×3 with PBS-T. WesternBright ECL (Advansta) was added to the membrane for 2 min and analyzed using ImageQuant LAS-4000 analyzer (GE Healthcare Life Sciences) & “ImageQuant LAS-4000” software (GE Healthcare Life Sciences). Densitometry analysis was performed using ImageQuant total lab 7 (GE Healthcare Life Sciences), image analysis software.
(A western blot detects proteins with antibodies after separation by electrophoresis.)

The test system of a further assay is MCF10AT1K (M2) cells. Description: TUNEL assay in M2 cells in 3D BME system. It counts as cell-based, Human. The conditions noted are these: 40 μM, 24 h. The method, then:
Cells were harvested from their growth plates using 0.25% trypsin EDTA. Collected cells were cultured in Cultrex® growth factor reduced Basement Membrane Extract (BME: Trevigen, Inc) as follows: An 8 chamber glass slide system (Lab-TEK® II, Naperville, IL) was coated with 60 μl BME [Barkan D. et al., Cancer Research (2008)](protein concentration between […]; thickness-1-2 mm). 5×10^3 cells per well were re-suspended in DMEM/F12 supplemented with 2.5% DHS and 2% BME and cultured on the coated slides. Slides were incubated at 37° C., 5% CO2 incubator. Cells were re-fed every 4 days. Cell morphology was monitored by light microscopy. Immunofluorescence images were captured by Nikon Al—R confocal laser scanning microscope (Haifa University, Haifa, Israel).
The cells were cultured as described above in 8 well chamber glass slides, fixed according to Barkan's immunofluorescence staining protocol and incubated for 1 hour with a mixture of TUNEL reaction mix according to the manufacturer's protocol (In Situ Cell death Detection Kit, TMR Red; Roche, Cat #12-156-792-910) covered with aluminum foil and placed in the 37° C., 5% CO2 incubator. Following incubation, slides were washed three times with PBS for 5 minutes each, and mounted with […] mounting medium with DAPI. DAPI stain was used to assess total cell number. […]

For assay [1], the system named is CCRF-CEM (acute lymphoblastic leukemia) cell line. Description: Western blot analysis of CCRF-CEM. Format: cell-based. The settings on record: B3 alone, 24 hrs. As to the method: as §1
The target in assay [2] is T1, complex formation between XIAP and Bcl-2 (Homo sapiens, UniProt P10415+P98170).
T1 construct: expressed in transfected cells; host or cells: HCT 116 XIAP KO cells
T1 sequence (P98170 whole entry): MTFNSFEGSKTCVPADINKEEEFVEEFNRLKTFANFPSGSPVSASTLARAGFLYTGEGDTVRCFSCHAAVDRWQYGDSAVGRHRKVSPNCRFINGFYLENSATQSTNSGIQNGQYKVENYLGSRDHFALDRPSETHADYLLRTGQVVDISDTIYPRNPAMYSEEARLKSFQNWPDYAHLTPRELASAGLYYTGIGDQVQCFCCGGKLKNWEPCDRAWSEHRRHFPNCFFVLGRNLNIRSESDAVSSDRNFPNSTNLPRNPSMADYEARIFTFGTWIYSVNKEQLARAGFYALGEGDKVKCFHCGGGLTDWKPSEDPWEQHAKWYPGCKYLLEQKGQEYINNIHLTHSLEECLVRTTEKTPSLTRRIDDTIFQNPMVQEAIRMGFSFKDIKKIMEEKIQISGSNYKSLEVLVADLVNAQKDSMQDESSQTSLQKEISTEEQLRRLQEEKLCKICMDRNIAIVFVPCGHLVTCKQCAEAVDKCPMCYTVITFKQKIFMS
T1 sequence (P10415 whole entry): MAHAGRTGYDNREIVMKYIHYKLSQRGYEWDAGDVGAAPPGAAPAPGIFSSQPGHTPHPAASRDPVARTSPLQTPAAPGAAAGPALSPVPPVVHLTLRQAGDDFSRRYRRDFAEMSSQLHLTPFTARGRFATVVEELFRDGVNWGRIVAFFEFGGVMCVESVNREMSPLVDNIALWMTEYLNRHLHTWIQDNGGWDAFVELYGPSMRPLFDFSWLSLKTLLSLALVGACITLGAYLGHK
The assay is described as follows: Co-immunoprecipitation in HCT 116 XIAP KO cells transfected with GFP-XIAP and Flag-Bcl-2. The settings on record: 20 uM B3. Format: cell-based. As to the method:
Protein extracts were prepared with lysis buffer containing 150 mM NaCl, 50 mM Tris-HCl (pH 8), 1% NP-40, 0.5% deoxycholate acid with protease inhibitors (mini complete, Roche). Protein levels were determined and equal amounts were used for each sample. Lysates were pre-cleared with […] mouse IgG (Sigma) coupled with protein A/G sepharose mix (Amersham Biosciences). Complexes were incubated overnight at 4° C., followed by low-speed centrifugation. Supernatants were immunoprecipitated using […] of monoclonal anti-Bcl-2 antibodies (BD) overnight. Protein A/G sepharose beads were added to immunoprecipitate complex for 4 hours, collected and washed four times with PBS and then responded and heated in Sample buffer ×2 for 10 minutes.

Assay [3] has as its target T2, interaction between ARTS and Bcl2 (Homo sapiens, UniProt P10415).
T2 construct: expressed in transfected cells; host or cells: A-375 or HeLa wt cells (the legend names both)
The assay is described as follows: BiFC assay between ARTS and Bcl-2. It counts as cell-based. The settings on record: 20 μM. The text has this: The split-Venus BiFC system was used to evaluate close proximity indicating possible direct binding between pairs of proteins. The proteins were fused either to the N-terminal part of the Venus-YFP (yellow fluorescence protein) (VN) or the C-terminal part (VC). All Venus fragments were fused to the C-terminal sequences of these proteins. The Jun and Fos pair was used as a positive control (P.C.), and the Jun and FosdeltaZIP pair was used as a negative control (N.C.). A vector encoding dsRed was used as a transfection efficiency marker. Cells were seeded in 12 well plates overnight. Cells were then transfected with (Bcl-2-VC, ARTS-VN, XIAP-VN and XIAP-VC) for 24-36 hours. Cells were then treated with apoptotic inducing reagents for 24 hrs.

Assay [4] deals with WT MEFs and Sept4/ARTS KO MEFs cells. The assay is described as follows: Western blot of WT MEFs and Sept4/ARTS KO MEFs. The settings on record: 20 or 40 μM, 24 hours. It counts as cell-based, mouse. The method, then:
Cells were lysed in whole-cell extract buffer [25 mM HEPES, pH 7.7, […], 1.5 mM MgCl2, 0.2 mM EDTA, 0.1% Triton X-100, 100 μg/ml phenylmethylsulfonyl fluoride (PMSF) and protease inhibitor cocktail (Roche, 1:100 dilution)] and placed on ice for 30 min (vortexing once after 15 min). After 30 minutes, the samples were centrifuged at 13,000×g for 10 minutes at 4° C. The supernatants containing total protein were measured for protein concentration using Bio-Rad Protein Assay Dye Reagent Concentrate Kit. 40 to […] was separated by sodium dodecyl sulfate-polyacrylamide gel electrophoresis (SDS-PAGE) (12% or 7.5%), followed by transfer to a nitrocellulose membrane. The membranes were blocked with 5% (w/v) non-fat dried skimmed milk powder in PBS supplemented with 0.05% Tween-20 (PBS-T) for 1 h at RT. Next, primary antibodies were added at 4° C. overnight or for 2 h at room temperature. Membranes were then incubated with secondary antibody for 1 h at RT and washed three times for 15 min each with PBS-T. Western Bright ECL (Advansta) was added to the membrane for 30-60 s and analyzed using Image Quant LAS-4000 (GE Healthcare Life Sciences) and Image Quant LAS-4000 software (GE Healthcare Life Sciences).

The results in this text go back to US20250057813A1, “APOPTOSIS RELATED PROTEIN IN THE TGF-BETA SIGNALING PATHWAY (ARTS) MIMETIC COMPOUNDS, COMPOSITIONS, METHODS AND USES THEREOF IN INDUCTION OF APOPTOSIS” (Carmel-Haifa University Economic Corporation Ltd., priority 2022, published 2025).

T2 sequence (P10415 whole entry): as above

Consider `Cn1ccnc1C(=O)c1ccc(NC(=O)C(=O)N[C@H](CO)Cc2ccccc2)cc1` [B3, (S)-N1-(1-hydroxy-3-phenylpropan-2-yl)-N2-(4-(1-methyl-1H-imidazole-2-carbonyl)phenyl)oxalamide], for which, in the assay with HeLa cells, the anti-apoptotic markers entry is recorded as “reduction”. In the assay with MCF10AT1K (M2) cells, the “number of cells positive for TUNEL staining” value is on record as “significant increase”. Besides, the induction of apoptosis result in assay [1] is recorded as “sufficient to induce apoptosis”. The “complex formation between XIAP and Bcl-2” value in assay [2] is listed as “significantly increase”. The “binding of ARTS to Bcl-2” value in assay [3] (3 hours) is on record as “increase”. The “binding of ARTS to Bcl-2” value in assay [3] (24 hours) was “no effect”. In addition, in assay [4], the XIAP levels entry is reported as “downregulates” and the p53 levels entry is listed as “upregulate”.
